Assay results: patent US20260198493A1, “HYDRAZIDE COMPOUND AND AGRICULTURAL/HORTICULTURAL FUNGICIDE” (Nippon Soda Co., Ltd., priority 2022, published 2026)

Key:
Venturia inaequalis = test: Control test of apple scab disease (sprayed young apple seedlings); type: in vivo; conditions: 125 ppm by mass spray, 12 to 14 days after inoculation
Botrytis cinerea [1] = type: cell-based; conditions: 120 h, 25 ppm by volume, Vogel medium, 20° C., five days, dark, read-out: growth inhibition ratio
Fusarium graminearum = test: microbe, parasite or virus in culture; type: cell-based; conditions: 96 h, read-out: growth inhibition ratio
Glomerella cingulata = test: Fungicidal effect test against fungi causing grape ripe rot disease; conditions: Colletotrichum gloeosporioides, 72 h, read-out: growth inhibition ratio
Colletotrichum acutatum = test: Fungicidal effect test against fungi causing apple anthracnose; conditions: 96 h, read-out: growth inhibition ratio
[2] = test system: Erysiphe graminis f.sp.tritici; test: Control test of wheat powdery mildew disease (sprayed young wheat seedlings); type: in vivo; conditions: Blumeria graminis, 144 h, 125 ppm by mass spray, six days after inoculation
Botrytis cinerea [3] = test: Control test of cucumber gray mold (sprayed young cucumber seedlings); type: in vivo; conditions: 96 h, four days after inoculation; for pest or weed control at 25 ppm: 25 ppm by mass spray; for pest or weed control at 125 ppm: 125 ppm by mass spray
Experimental: Then, the drug liquid was sprayed onto young cucumber seedlings cultivated in a nursery pot (variety “Jihai”-based, cotyledon stage), and then air-dried. […] They were left still in a moist room at 20° C. Four days after inoculation, leaves of the young cucumber seedlings were visually observed, and the control value was calculated from the lesion area ratio in accordance with the following equation. [formula]

COC(=O)N(Cc1ccc(OC)cc1C)NC(=O)c1cc(C)ncc1Oc1cccc(Br)c1F [b-108]
≥ 75%: pest or weed control at 125 ppm (Venturia inaequalis) | inhibition of growth at 25 ppm (Botrytis cinerea [1]) | inhibition of growth at 25 ppm (Fusarium graminearum) | inhibition of growth at 25 ppm (Glomerella cingulata) | inhibition of growth at 25 ppm (Colletotrichum acutatum) | pest or weed control at 125 ppm [2] | pest or weed control at 25 ppm (Botrytis cinerea [3]) | pest or weed control at 125 ppm (Botrytis cinerea [3])

COC(=O)N(Cc1ccc(C)cc1C)NC(=O)c1c(Oc2cccc(C3CC3)c2)cnnc1OC(C)C [b-223]
≥ 75%: pest or weed control at 125 ppm (Venturia inaequalis) | inhibition of growth at 25 ppm (Botrytis cinerea [1]) | inhibition of growth at 25 ppm (Fusarium graminearum) | inhibition of growth at 25 ppm (Glomerella cingulata) | inhibition of growth at 25 ppm (Colletotrichum acutatum) | pest or weed control at 125 ppm [2] | pest or weed control at 25 ppm (Botrytis cinerea [3]) | pest or weed control at 125 ppm (Botrytis cinerea [3])

COCOc1ccc(CN(NC(=O)c2cc(C)ncc2Oc2cccc(C3CC3)c2F)C(=O)OC)c(C)c1 [b-74]
≥ 75%: pest or weed control at 125 ppm (Venturia inaequalis) | inhibition of growth at 25 ppm (Botrytis cinerea [1]) | inhibition of growth at 25 ppm (Fusarium graminearum) | inhibition of growth at 25 ppm (Glomerella cingulata) | inhibition of growth at 25 ppm (Colletotrichum acutatum) | pest or weed control at 125 ppm [2] | pest or weed control at 25 ppm (Botrytis cinerea [3]) | pest or weed control at 125 ppm (Botrytis cinerea [3])

COC(=O)N(Cc1ccc(C)cc1C)NC(=O)c1ccncc1Oc1cccc(Br)c1F [b-147]
≥ 75%: pest or weed control at 125 ppm (Venturia inaequalis) | inhibition of growth at 25 ppm (Botrytis cinerea [1]) | inhibition of growth at 25 ppm (Fusarium graminearum) | inhibition of growth at 25 ppm (Glomerella cingulata) | inhibition of growth at 25 ppm (Colletotrichum acutatum) | pest or weed control at 125 ppm [2] | pest or weed control at 25 ppm (Botrytis cinerea [3]) | pest or weed control at 125 ppm (Botrytis cinerea [3])

COC(=O)N(Cc1ccc(C)cc1C)NC(=O)c1cc(C)nnc1Oc1cccc(C(F)(F)F)c1 [b-53]
≥ 75%: pest or weed control at 125 ppm (Venturia inaequalis) | inhibition of growth at 25 ppm (Botrytis cinerea [1]) | inhibition of growth at 25 ppm (Fusarium graminearum) | inhibition of growth at 25 ppm (Glomerella cingulata) | inhibition of growth at 25 ppm (Colletotrichum acutatum) | pest or weed control at 125 ppm [2] | pest or weed control at 25 ppm (Botrytis cinerea [3]) | pest or weed control at 125 ppm (Botrytis cinerea [3])

COC(=O)N(Cc1ccc(Cl)cc1C)NC(=O)c1cc(C)nnc1Oc1cccc(C2CC2)c1F [b-34]
≥ 75%: pest or weed control at 125 ppm (Venturia inaequalis) | inhibition of growth at 25 ppm (Botrytis cinerea [1]) | inhibition of growth at 25 ppm (Fusarium graminearum) | inhibition of growth at 25 ppm (Glomerella cingulata) | inhibition of growth at 25 ppm (Colletotrichum acutatum) | pest or weed control at 125 ppm [2] | pest or weed control at 25 ppm (Botrytis cinerea [3]) | pest or weed control at 125 ppm (Botrytis cinerea [3])

COC(=O)N(Cc1ccc(C)cc1Cl)NC(=O)c1c(Oc2cccc(Cl)c2F)nnc(Cl)c1C [b-176]
≥ 75%: pest or weed control at 125 ppm (Venturia inaequalis) | inhibition of growth at 25 ppm (Botrytis cinerea [1]) | inhibition of growth at 25 ppm (Fusarium graminearum) | inhibition of growth at 25 ppm (Glomerella cingulata) | inhibition of growth at 25 ppm (Colletotrichum acutatum) | pest or weed control at 125 ppm [2] | pest or weed control at 25 ppm (Botrytis cinerea [3]) | pest or weed control at 125 ppm (Botrytis cinerea [3])

COC(=O)N(Cc1ccc(C)cc1C)NC(=O)c1cc(C)nnc1Oc1cccc(Br)c1F [b-38]
≥ 75%: pest or weed control at 125 ppm (Venturia inaequalis) | inhibition of growth at 25 ppm (Botrytis cinerea [1]) | inhibition of growth at 25 ppm (Fusarium graminearum) | inhibition of growth at 25 ppm (Glomerella cingulata) | inhibition of growth at 25 ppm (Colletotrichum acutatum) | pest or weed control at 125 ppm [2] | pest or weed control at 25 ppm (Botrytis cinerea [3]) | pest or weed control at 125 ppm (Botrytis cinerea [3])

COC(=O)N(Cc1ccc(C)cc1Cl)NC(=O)c1c(C)cncc1Oc1cccc(C2CC2)c1 [b-178]
≥ 75%: pest or weed control at 125 ppm (Venturia inaequalis) | inhibition of growth at 25 ppm (Botrytis cinerea [1]) | inhibition of growth at 25 ppm (Fusarium graminearum) | inhibition of growth at 25 ppm (Glomerella cingulata) | inhibition of growth at 25 ppm (Colletotrichum acutatum) | pest or weed control at 125 ppm [2] | pest or weed control at 25 ppm (Botrytis cinerea [3]) | pest or weed control at 125 ppm (Botrytis cinerea [3])

COC(=O)N(Cc1ccc(C)cc1C)NC(=O)c1cc(C)nnc1Oc1cccc(C(F)(F)F)c1F [b-36]
≥ 75%: pest or weed control at 125 ppm (Venturia inaequalis) | inhibition of growth at 25 ppm (Botrytis cinerea [1]) | inhibition of growth at 25 ppm (Fusarium graminearum) | inhibition of growth at 25 ppm (Glomerella cingulata) | inhibition of growth at 25 ppm (Colletotrichum acutatum) | pest or weed control at 125 ppm [2] | pest or weed control at 25 ppm (Botrytis cinerea [3]) | pest or weed control at 125 ppm (Botrytis cinerea [3])

COC(=O)N(Cc1ccc(C)cc1C)NC(=O)c1cc(C)nnc1Oc1cccc(C2CC2)c1 [b-80]
≥ 75%: pest or weed control at 125 ppm (Venturia inaequalis) | inhibition of growth at 25 ppm (Botrytis cinerea [1]) | inhibition of growth at 25 ppm (Fusarium graminearum) | inhibition of growth at 25 ppm (Glomerella cingulata) | inhibition of growth at 25 ppm (Colletotrichum acutatum) | pest or weed control at 125 ppm [2] | pest or weed control at 25 ppm (Botrytis cinerea [3]) | pest or weed control at 125 ppm (Botrytis cinerea [3])

COC(=O)N(Cc1ccc(C)cc1C)NC(=O)c1cc(C)nnc1Oc1cccc(F)c1F [b-152]
≥ 75%: pest or weed control at 125 ppm (Venturia inaequalis) | inhibition of growth at 25 ppm (Botrytis cinerea [1]) | inhibition of growth at 25 ppm (Fusarium graminearum) | inhibition of growth at 25 ppm (Glomerella cingulata) | inhibition of growth at 25 ppm (Colletotrichum acutatum) | pest or weed control at 125 ppm [2] | pest or weed control at 25 ppm (Botrytis cinerea [3]) | pest or weed control at 125 ppm (Botrytis cinerea [3])

CCc1cncc(Oc2cccc(C3CC3)c2F)c1C(=O)NN(Cc1ccc(OC)cc1C)C(=O)OC [b-230]
≥ 75%: pest or weed control at 125 ppm (Venturia inaequalis) | inhibition of growth at 25 ppm (Botrytis cinerea [1]) | inhibition of growth at 25 ppm (Fusarium graminearum) | inhibition of growth at 25 ppm (Glomerella cingulata) | inhibition of growth at 25 ppm (Colletotrichum acutatum) | pest or weed control at 125 ppm [2] | pest or weed control at 25 ppm (Botrytis cinerea [3]) | pest or weed control at 125 ppm (Botrytis cinerea [3])

COC(=O)N(Cc1ccc(C)cc1C)NC(=O)c1c(Oc2cccc(Cl)c2F)nnc(Cl)c1C [b-227]
≥ 75%: pest or weed control at 125 ppm (Venturia inaequalis) | inhibition of growth at 25 ppm (Botrytis cinerea [1]) | inhibition of growth at 25 ppm (Fusarium graminearum) | inhibition of growth at 25 ppm (Glomerella cingulata) | inhibition of growth at 25 ppm (Colletotrichum acutatum) | pest or weed control at 125 ppm [2] | pest or weed control at 25 ppm (Botrytis cinerea [3]) | pest or weed control at 125 ppm (Botrytis cinerea [3])

COC(=O)N(Cc1ccc(OC)cc1C)NC(=O)c1c(C)cncc1Oc1cccc(C2CC2)c1 [b-229]
≥ 75%: pest or weed control at 125 ppm (Venturia inaequalis) | inhibition of growth at 25 ppm (Botrytis cinerea [1]) | inhibition of growth at 25 ppm (Fusarium graminearum) | inhibition of growth at 25 ppm (Glomerella cingulata) | inhibition of growth at 25 ppm (Colletotrichum acutatum) | pest or weed control at 125 ppm [2] | pest or weed control at 25 ppm (Botrytis cinerea [3]) | pest or weed control at 125 ppm (Botrytis cinerea [3])

Cc1cccc(Oc2nnc(C)cc2C(=O)NN(Cc2ccc(C)cc2C)C(=O)O)c1 [b-117]
≥ 75%: pest or weed control at 125 ppm (Venturia inaequalis) | inhibition of growth at 25 ppm (Botrytis cinerea [1]) | inhibition of growth at 25 ppm (Fusarium graminearum) | inhibition of growth at 25 ppm (Glomerella cingulata) | inhibition of growth at 25 ppm (Colletotrichum acutatum) | pest or weed control at 125 ppm [2] | pest or weed control at 25 ppm (Botrytis cinerea [3]) | pest or weed control at 125 ppm (Botrytis cinerea [3])

COC(=O)N(Cc1ccc(OC)cc1C)NC(=O)c1cc(C)ncc1Oc1cccc(Br)c1 [b-107]
≥ 75%: pest or weed control at 125 ppm (Venturia inaequalis) | inhibition of growth at 25 ppm (Botrytis cinerea [1]) | inhibition of growth at 25 ppm (Fusarium graminearum) | inhibition of growth at 25 ppm (Glomerella cingulata) | inhibition of growth at 25 ppm (Colletotrichum acutatum) | pest or weed control at 125 ppm [2] | pest or weed control at 125 ppm (Botrytis cinerea [3])

COC(=O)N(Cc1ccc(C)cc1C)NC(=O)c1ccncc1Oc1cccc(Br)c1 [b-145]
≥ 75%: pest or weed control at 125 ppm (Venturia inaequalis) | inhibition of growth at 25 ppm (Botrytis cinerea [1]) | inhibition of growth at 25 ppm (Fusarium graminearum) | inhibition of growth at 25 ppm (Glomerella cingulata) | inhibition of growth at 25 ppm (Colletotrichum acutatum) | pest or weed control at 125 ppm [2] | pest or weed control at 25 ppm (Botrytis cinerea [3]) | pest or weed control at 125 ppm (Botrytis cinerea [3])

Cc1ccc(CN(NC(=O)c2ccncc2Oc2cccc(C3CC3)c2F)C(=O)OC2COC2)c(C)c1 [b-196]
≥ 75%: pest or weed control at 125 ppm (Venturia inaequalis) | inhibition of growth at 25 ppm (Botrytis cinerea [1]) | inhibition of growth at 25 ppm (Fusarium graminearum) | inhibition of growth at 25 ppm (Glomerella cingulata) | inhibition of growth at 25 ppm (Colletotrichum acutatum) | pest or weed control at 125 ppm [2] | pest or weed control at 25 ppm (Botrytis cinerea [3]) | pest or weed control at 125 ppm (Botrytis cinerea [3])

COC(=O)N(Cc1ccc(C)cc1C)NC(=O)c1ccncc1Oc1cccc(C2CC2)c1F [b-150]
≥ 75%: pest or weed control at 125 ppm (Venturia inaequalis) | inhibition of growth at 25 ppm (Botrytis cinerea [1]) | inhibition of growth at 25 ppm (Fusarium graminearum) | inhibition of growth at 25 ppm (Glomerella cingulata) | inhibition of growth at 25 ppm (Colletotrichum acutatum) | pest or weed control at 125 ppm [2] | pest or weed control at 25 ppm (Botrytis cinerea [3]) | pest or weed control at 125 ppm (Botrytis cinerea [3])

COC(=O)N(Cc1ccc(OC)cc1C)NC(=O)c1c(F)cncc1Oc1cccc(Cl)c1F [b-202]
≥ 75%: pest or weed control at 125 ppm (Venturia inaequalis) | inhibition of growth at 25 ppm (Botrytis cinerea [1]) | inhibition of growth at 25 ppm (Fusarium graminearum) | inhibition of growth at 25 ppm (Glomerella cingulata) | inhibition of growth at 25 ppm (Colletotrichum acutatum) | pest or weed control at 125 ppm [2] | pest or weed control at 25 ppm (Botrytis cinerea [3]) | pest or weed control at 125 ppm (Botrytis cinerea [3])

COC(=O)N(Cc1ccc(C)cc1C)NC(=O)c1cc(C)nnc1Oc1cccc(Cl)c1 [b-113]
≥ 75%: pest or weed control at 125 ppm (Venturia inaequalis) | inhibition of growth at 25 ppm (Botrytis cinerea [1]) | inhibition of growth at 25 ppm (Fusarium graminearum) | inhibition of growth at 25 ppm (Glomerella cingulata) | inhibition of growth at 25 ppm (Colletotrichum acutatum) | pest or weed control at 125 ppm [2] | pest or weed control at 25 ppm (Botrytis cinerea [3]) | pest or weed control at 125 ppm (Botrytis cinerea [3])

COC(=O)N(Cc1ccc(OC)cc1C)NC(=O)c1cc(Cl)nnc1Oc1cccc(Cl)c1F [b-170]
≥ 75%: pest or weed control at 125 ppm (Venturia inaequalis) | inhibition of growth at 25 ppm (Botrytis cinerea [1]) | inhibition of growth at 25 ppm (Fusarium graminearum) | inhibition of growth at 25 ppm (Glomerella cingulata) | inhibition of growth at 25 ppm (Colletotrichum acutatum) | pest or weed control at 125 ppm [2] | pest or weed control at 125 ppm (Botrytis cinerea [3])

Cc1ccc(CN(NC(=O)c2cc(C)nnc2Oc2cccc(C3CC3)c2F)C(=O)OC2COC2)c(C)c1 [b-232]
≥ 75%: pest or weed control at 125 ppm (Venturia inaequalis) | inhibition of growth at 25 ppm (Botrytis cinerea [1]) | inhibition of growth at 25 ppm (Fusarium graminearum) | inhibition of growth at 25 ppm (Glomerella cingulata) | inhibition of growth at 25 ppm (Colletotrichum acutatum) | pest or weed control at 125 ppm [2] | pest or weed control at 25 ppm (Botrytis cinerea [3]) | pest or weed control at 125 ppm (Botrytis cinerea [3])
